How the values were obtained:
Wistar rats = assay: Muscle mass in the TNF-α-induced myatrophy animal model; assay type: in vivo; conditions: once daily for eight weeks, extract 500 mg/kg, flavones 300 mg/kg; for Calf muscle weight: TNF-α 100 ng/g for two weeks, TNF-α control 437 mg; for muscle weight compared to the control levels: TNF-α-induced myatrophy, p<0.01
Protocol: Five-week-old Wistar rats were acclimated for one week and myatrophy was induced by supplying TNF-α at the dose of 100 ng/g for two weeks. Afterwards, rats were randomly divided according to body weight into a total of 4 groups, each consisting of 8 rats. Each of the Kaempferia parviflora extract and flavone compounds was suspended in 0.25% carboxymethylcellulose and administered once daily for eight weeks at the dose of 500 mg/kg body weight for the Kaempferia parviflora extract, 300 mg/kg body weight for each of 5,7-dimethoxyflavone, 5,7,4′-trimethoxyflavone and 3,5,7,3′,4′-pentamethoxyflavone. The control group was administered with the same amount of 0.25% carboxymethylcellulose only as well as TNF-α.
After eight weeks of treatments, calf muscles were dissected out and weighed using microbalance (Mettler PE160, USA).

atrogin-1 = assay: RT-PCR of atrogin-1 mRNA in differentiated L6 cells treated with TNF-α; assay type: cell-based; conditions: TNF-α 24 hours, then 5,7-dimethoxyflavone 1 or 5 μM, normalized by β-actin, FIG. 1
Protocol: (§1) Muscle cell-line L6 myoblast (American Type Culture Collection, Manassas, Va., USA) was cultured in DMEM (10% FBS, 100 U/mL penicillin, 100 µg/mL streptomycin). When the cell density reached approximately 80˜85%, differentiation was induced for six days by replacing the culture medium with DMEM growth medium supplemented with 2% FBS for further experiments. In order to evoke muscle reduction in the differentiated L6 cells, cells were treated with TNF-α for 24 hours followed by the treatment with 5,7-dimethoxyflavone prepared in Example 2-1 at different concentrations (1 or 5 μM). RT-PCR experiments were performed to examine the expression levels of atrogin-1 and MuRF1, major ligases involved in protein catabolism in the muscles. Total RNA was obtained from the differentiated cells using Trizol (Invitrogen, Carlsbad, Calif., USA) and subjected to reverse transcription as follows. Total RNA isolated as above was reverse-transcribed using reverse transcriptases. The following primers were used for RT-PCR experiments.
(§2) Relative levels of mRNA for each gene was normalized by the value of β-actin.

MuRF1 = assay: RT-PCR of MuRF1 mRNA in differentiated L6 cells treated with TNF-α; assay type: cell-based; conditions: TNF-α 24 hours, then 5,7-dimethoxyflavone 1 or 5 μM, normalized by β-actin, FIG. 1
Protocol: as §1, §2

myogenin = assay: RT-PCR of myogenin mRNA in differentiated L6 cells; assay type: cell-based; conditions: 5,7-dimethoxyflavone 1 or 5 μM (FIG. 2), extract 1 or 10 μg/ml (FIG. 4), normalized by β-actin
myoD = assay: RT-PCR of myoD mRNA in differentiated L6 cells; assay type: cell-based; conditions: 5,7-dimethoxyflavone 1 or 5 μM (FIG. 2), extract 1 or 10 μg/ml (FIG. 4), normalized by β-actin
PI3K = assay: Western blot of PI3K protein in L6 cells; assay type: cell-based; conditions: 5,7-dimethoxyflavone 1 or 5 μM (FIG. 3), extract 1 or 10 μg/ml (FIG. 5)
Protocol: as §1
(§3) L6 cells were treated in the same manner as Experimental example 1, and were lysed with RIPA buffered solution containing a proteinase inhibitor cocktail. […] Protein bands were visualized using ECL western blotting detected reagents (Amersham, Tokyo, Japan). […]

p-Akt = assay: Western blot of p-Akt protein in L6 cells; assay type: cell-based; conditions: 5,7-dimethoxyflavone 1 or 5 μM (FIG. 3), extract 1 or 10 μg/ml (FIG. 5)
Protocol: as §1, §3

p-mTOR = assay: Western blot of p-mTOR protein in L6 cells; assay type: cell-based; conditions: 5,7-dimethoxyflavone 1 or 5 μM (FIG. 3), extract 1 or 10 μg/ml (FIG. 5)
Protocol: as §1, §3

| Structure (SMILES) | Calf muscle weight (Wistar rats) | muscle weight compared to the control levels (Wistar rats) | mRNA level of atrogin-1 (atrogin-1) | mRNA level of MuRF1 (MuRF1) | mRNA level of myogenin (myogenin) | mRNA level of myoD (myoD) | protein level of PI3K (PI3K) | protein level of p-AKT (p-Akt) | protein level of p-mTOR (p-mTOR) |
| --- | --- | --- | --- | --- | --- | --- | --- | --- | --- |
| COc1ccc(-c2cc(=O)c3c(OC)cc(OC)cc3o2)cc1 [5,7,4′-trimethoxyflavone] | 519 mg | 118% | – | – | – | – | – | – | – |
| COc1cc(OC)c2c(=O)cc(-c3ccccc3)oc2c1 [5,7-dimethoxyflavone] | 551 mg | 126% | reduces | reduces | increases | increases | upregulate | upregulate | upregulate |
| COc1cc(OC)c2c(=O)c(OC)c(-c3ccc(OC)c(OC)c3)oc2c1 [3,5,7,3′,4′-pentamethoxyflavone] | 528 mg | 120% | – | – | – | – | – | – | – |

— patent US10188690B2, “Use of Kaempferia parviflora wall. ex. baker extracts or flavone compound for preventing or treating muscle diseases, or improving muscle function” (AAT COSTECH CO., LTD., priority 2012, dated 2019)
